Assay results: patent publication US20240239755A1, “SUBSTITUTED PYRIDAZINONES, SALTS OR N-OXIDES THEREOF AND THEIR USE AS HERBICIDALLY ACTIVE SUBSTANCES” (Bayer Aktiengesellschaft, priority 2021, published 2024)

Tests used:
Type in all cases: in vivo
[1] = test system: Amaranthus retroflexus (AMARE); assay: Herbicidal post-emergence action, 320 g/ha, AMARE; conditions: visual grading after ca. 3 weeks
Source text: (§1) Seeds of mono- and dicotyledonous weed plants were sown in plastic pots (double sowings with one species of mono- and one species of dicotyledonous weed plants per pot), in sandy loam, covered with soil and grown under controlled growth conditions. 2 to 3 weeks after sowing, the test plants were sprayed in the single-leaf stage. The compounds according to the invention, formulated in the form of wettable powders (WP) or as emulsifiable concentrates (EC), were sprayed onto the green plant parts as an aqueous suspension or as an emulsion, with the addition of 0.5% of an additive, at an application rate of 600 litres of water per hectare (converted). The test plants were placed in the greenhouse for ca. 3 weeks under optimum growth conditions, and then the effect of the preparations was assessed visually in comparison with untreated controls (herbicidal effect in percent (%): 100% effect=plants have died, 0% effect=as control plants).
(§2) Tables D1 to D8 below, show the effects of selected compounds of the general formula (I) according to Table 1 on various harmful plants using an application rate corresponding to 320 g/ha obtained by the experimental procedure mentioned above.

[2] = test system: Amaranthus retroflexus (AMARE); assay: Herbicidal post-emergence action, 1280 g/ha, AMARE; conditions: visual grading vs untreated controls
Source text: as §1
(§3) Tables B1 to B11 below, show the effects of selected compounds of the general formula (I) according to Table 1 on various harmful plants using an application rate corresponding to 1280 g/ha obtained by the experimental procedure mentioned above.

Kochia scoparia (KCHSC) [3] = assay: Herbicidal post-emergence action, 1280 g/ha (Table B4); conditions: visual assessment after ca. 3 weeks vs untreated controls
Source text: as §1, with “plants). Tables B1 to B11 below, show the effects of selected compounds of the general formula (I) according to Table 1 on various harmful plants using an application rate corresponding to 1280 g/ha obtained by the experimental procedure mentioned above.” for “plants).”

[4] = test system: Abutilon theophrasti (ABUTH); assay: Herbicidal post-emergence action, 1280 g/ha (Table B1); conditions: visual assessment after ca. 3 weeks vs untreated controls
Source text: as §1, with “plants). Tables B1 to B11 below, show the effects of selected compounds of the general formula (I) according to Table 1 on various harmful plants using an application rate corresponding to 1280 g/ha obtained by the experimental procedure mentioned above.” for “plants).”

Kochia scoparia (KCHSC) [5] = assay: Herbicidal pre-emergence action, 1280 g/ha (Table A4); conditions: visual grading after ca. 3 weeks vs untreated controls
Source text: (§4) Seeds of mono- and dicotyledonous weed plants were sown in plastic pots (double sowings with one species of mono- and one species of dicotyledonous weed plants per pot), in sandy loam, and covered with soil. The compounds according to the invention, formulated in the form of wettable powders (WP) or as emulsifiable concentrates (EC), were applied to the surface of the covering soil as an aqueous suspension or as an emulsion, with the addition of 0.5% of an additive, at an application rate of 600 litres of water per hectare (converted). Following treatment, the pots were placed in a greenhouse and kept under optimum growth conditions for the test plants. The visual grading of the damage to the test plants was carried out after ca. 3 weeks in comparison to untreated controls (herbicidal effect in percent (%): 100% effect=plants have died, 0% effect=as control plants). Tables A1 to A11 below, show the effects of selected compounds of the general formula (I) according to Table 1 on various harmful plants and an application rate corresponding to 1280 g/ha obtained by the experimental procedure mentioned above.

Veronica persica (VERPE) = assay: Herbicidal post-emergence action, 1280 g/ha, VERPE; conditions: visual grading vs untreated controls
Source text: as §1, §3

[6] = test system: Abutilon theophrasti (ABUTH); assay: Herbicidal post-emergence action, 320 g/ha, ABUTH; conditions: visual grading after ca. 3 weeks
Source text: as §1, §2

[7] = test system: Amaranthus retroflexus (AMARE); assay: Herbicidal pre-emergence action, 1280 g/ha (Table A11); conditions: visual grading after ca. 3 weeks vs untreated controls
Source text: as §4

Stellaria media (STEME) [8] = assay: Herbicidal post-emergence action, 1280 g/ha (Table B9); conditions: visual assessment after ca. 3 weeks vs untreated controls
Source text: as §1, with “plants). Tables B1 to B11 below, show the effects of selected compounds of the general formula (I) according to Table 1 on various harmful plants using an application rate corresponding to 1280 g/ha obtained by the experimental procedure mentioned above.” for “plants).”

[9] = test system: Matricaria inodora (MATIN); assay: Herbicidal post-emergence action, 1280 g/ha (Table B6); conditions: visual assessment after ca. 3 weeks vs untreated controls
Source text: as §1, with “plants). Tables B1 to B11 below, show the effects of selected compounds of the general formula (I) according to Table 1 on various harmful plants using an application rate corresponding to 1280 g/ha obtained by the experimental procedure mentioned above.” for “plants).”

Stellaria media (STEME) [10] = assay: Herbicidal pre-emergence action, 320 g/ha, STEME; conditions: visual grading after ca. 3 weeks
Source text: as §4, with “plants).” for “plants). Tables A1 to A11 below, show the effects of selected compounds of the general formula (I) according to Table 1 on various harmful plants and an application rate corresponding to 1280 g/ha obtained by the experimental procedure mentioned above.”
Tables C1 to C6 below, show the effects of selected compounds of the general formula (I) according to Table 1 on various harmful plants using an application rate corresponding to 320 g/ha obtained by the experimental procedure mentioned above.

Stellaria media (STEME) [11] = assay: Herbicidal post-emergence action, 320 g/ha, STEME; conditions: visual grading after ca. 3 weeks
Source text: as §1, §2

[12] = test system: Abutilon theophrasti (ABUTH); assay: Herbicidal pre-emergence action, 1280 g/ha (Table A1); conditions: visual grading after ca. 3 weeks vs untreated controls
Source text: as §4

Stellaria media (STEME) [13] = assay: Herbicidal pre-emergence action, 1280 g/ha (Table A9); conditions: visual grading after ca. 3 weeks vs untreated controls
Source text: as §4

Lolium rigidum (LOLRI) [14] = assay: Herbicidal pre-emergence action, 1280 g/ha (Table A5); conditions: visual grading after ca. 3 weeks vs untreated controls
Source text: as §4

Kochia scoparia (KCHSC) [15] = assay: Herbicidal post-emergence action, 320 g/ha, KCHSC; conditions: visual grading after ca. 3 weeks
Source text: as §1, §2

Lolium rigidum (LOLRI) [16] = assay: Herbicidal post-emergence action, 1280 g/ha (Table B5); conditions: visual assessment after ca. 3 weeks vs untreated controls
Source text: as §1, with “plants). Tables B1 to B11 below, show the effects of selected compounds of the general formula (I) according to Table 1 on various harmful plants using an application rate corresponding to 1280 g/ha obtained by the experimental procedure mentioned above.” for “plants).”

[17] = test system: Matricaria inodora (MATIN); assay: Herbicidal pre-emergence action, 1280 g/ha (Table A6); conditions: visual grading after ca. 3 weeks vs untreated controls
Source text: as §4

Lolium rigidum (LOLRI) [18] = assay: Herbicidal pre-emergence action, 320 g/ha (Table C2); conditions: visual grading after ca. 3 weeks vs untreated controls
Source text: as §4, with “Tables C1” for “Tables A1”, “to C6” for “to A11”, “plants using” for “plants and”, “to 320” for “to 1280”

[19] = test system: Matricaria inodora (MATIN); assay: Herbicidal post-emergence action, 320 g/ha, MATIN; conditions: visual grading after ca. 3 weeks
Source text: as §1, §2

SMILES	herbicidal effect AMARE [1]	herbicidal effect AMARE [2]	herbicidal effect KCHSC (Kochia scoparia (KCHSC) [3])	herbicidal effect ABUTH [4]	herbicidal effect KCHSC (Kochia scoparia (KCHSC) [5])	herbicidal effect VERPE (Veronica persica (VERPE))	herbicidal effect ABUTH [6]	herbicidal effect AMARE [7]	herbicidal effect STEME (Stellaria media (STEME) [8])	herbicidal effect MATIN [9]	herbicidal effect STEME (Stellaria media (STEME) [10])	herbicidal effect STEME (Stellaria media (STEME) [11])	herbicidal effect ABUTH [12]	herbicidal effect STEME (Stellaria media (STEME) [13])	herbicidal effect LOLRI (Lolium rigidum (LOLRI) [14])	herbicidal effect KCHSC (Kochia scoparia (KCHSC) [15])	herbicidal effect LOLRI (Lolium rigidum (LOLRI) [16])	herbicidal effect MATIN [17]	herbicidal effect LOLRI (Lolium rigidum (LOLRI) [18])	herbicidal effect MATIN [19]
Cc1nn(C)c(=O)c(Oc2ccc(Cl)cc2C2CC2)c1O [Example I-035]	90%	90%	90%	90%	100%	90%	90%	90%	90%	90%	–	–	–	–	–	–	–	–	–	–
CCOC(=O)Oc1c(C)nn(C)c(=O)c1Oc1cc(Cl)cc(Cl)c1Cl [Example I-097]	–	90%	–	–	–	–	–	100%	90%	–	90%	90%	100%	100%	100%	–	–	–	–	–
CCOC(=O)Oc1c(C)nn(C)c(=O)c1Oc1ccccc1OC(F)F [Example I-074]	–	100%	90%	100%	–	90%	–	–	100%	90%	–	–	–	90%	90%	90%	90%	–	–	–
Cc1nn(C)c(=O)c(Oc2cc(Cl)cc(Cl)c2Cl)c1O [Example I-096]	–	90%	–	–	–	–	–	90%	100%	–	100%	90%	–	100%	90%	–	–	100%	90%	–
Cc1nn(C)c(=O)c(Oc2ccccc2Br)c1O [Example I-011]	–	90%	90%	–	100%	–	–	100%	–	–	90%	–	–	100%	90%	–	–	90%	–	–
Cc1nn(C)c(=O)c(Oc2ccc(Cl)cc2Cl)c1O [Example I-019, 4-(2,4-dichlorophenoxy)-5-hydroxy-2,6-dimethyl-pyridazin-3-one]	90%	90%	90%	90%	–	90%	90%	–	90%	90%	–	–	–	100%	90%	90%	–	–	–	–
Cc1nn(C)c(=O)c(Oc2cc(F)c(F)cc2Br)c1OC(=O)C(C)C [Example I-094]	–	100%	90%	90%	–	90%	–	100%	–	90%	–	–	–	–	–	–	–	100%	–	90%
Cc1nn(C)c(=O)c(Oc2ccc(Cl)cc2Cl)c1OC(=O)C(C)(C)C [Example I-049]	–	100%	90%	90%	90%	90%	–	–	–	90%	–	–	–	100%	–	90%	–	–	–	–
CCOC(=O)Oc1c(C)nn(C)c(=O)c1Oc1cc(F)cc(F)c1Br [Example I-098]	–	100%	90%	90%	–	90%	–	100%	90%	90%	–	90%	–	100%	–	90%	–	100%	–	–
